Laboratory results as given in ChEMBL document CHEMBL4014275, “Discovery of benzofuran-3(2H)-one derivatives as novel DRAK2 inhibitors that protect islet β-cells from apoptosis” (Eur J Med Chem, 2017).

Experiments:
[1] = target: T1, Serine/threonine-protein kinase 17B (Homo sapiens, UniProt O94768); test: Inhibition of recombinant GST-tagged DRAK2 (unknown origin) autophosphorylation after 2 hrs by ADP-glo assay
T1 sequence (O94768 whole entry): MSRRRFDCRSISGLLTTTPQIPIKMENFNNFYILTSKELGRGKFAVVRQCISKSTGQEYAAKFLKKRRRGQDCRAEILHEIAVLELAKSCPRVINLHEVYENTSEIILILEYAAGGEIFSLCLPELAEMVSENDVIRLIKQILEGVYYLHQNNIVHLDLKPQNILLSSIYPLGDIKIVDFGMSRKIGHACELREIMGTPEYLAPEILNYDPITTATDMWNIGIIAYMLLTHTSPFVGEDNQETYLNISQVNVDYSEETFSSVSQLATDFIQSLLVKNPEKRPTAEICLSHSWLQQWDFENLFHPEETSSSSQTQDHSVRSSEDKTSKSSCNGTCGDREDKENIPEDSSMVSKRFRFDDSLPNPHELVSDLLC

[2] = target: Death-associated protein kinase 3 (Homo sapiens, UniProt O43293); test: Inhibition of human DAPK3
[3] = target: Death-associated protein kinase 2 (Homo sapiens, UniProt Q9UIK4); test: Inhibition of human DAPK2
[4] = target: T2, Tyrosine-protein kinase JAK3 (Homo sapiens, UniProt P52333); test: Inhibition of human JAK3
T2 sequence (P52333 whole entry): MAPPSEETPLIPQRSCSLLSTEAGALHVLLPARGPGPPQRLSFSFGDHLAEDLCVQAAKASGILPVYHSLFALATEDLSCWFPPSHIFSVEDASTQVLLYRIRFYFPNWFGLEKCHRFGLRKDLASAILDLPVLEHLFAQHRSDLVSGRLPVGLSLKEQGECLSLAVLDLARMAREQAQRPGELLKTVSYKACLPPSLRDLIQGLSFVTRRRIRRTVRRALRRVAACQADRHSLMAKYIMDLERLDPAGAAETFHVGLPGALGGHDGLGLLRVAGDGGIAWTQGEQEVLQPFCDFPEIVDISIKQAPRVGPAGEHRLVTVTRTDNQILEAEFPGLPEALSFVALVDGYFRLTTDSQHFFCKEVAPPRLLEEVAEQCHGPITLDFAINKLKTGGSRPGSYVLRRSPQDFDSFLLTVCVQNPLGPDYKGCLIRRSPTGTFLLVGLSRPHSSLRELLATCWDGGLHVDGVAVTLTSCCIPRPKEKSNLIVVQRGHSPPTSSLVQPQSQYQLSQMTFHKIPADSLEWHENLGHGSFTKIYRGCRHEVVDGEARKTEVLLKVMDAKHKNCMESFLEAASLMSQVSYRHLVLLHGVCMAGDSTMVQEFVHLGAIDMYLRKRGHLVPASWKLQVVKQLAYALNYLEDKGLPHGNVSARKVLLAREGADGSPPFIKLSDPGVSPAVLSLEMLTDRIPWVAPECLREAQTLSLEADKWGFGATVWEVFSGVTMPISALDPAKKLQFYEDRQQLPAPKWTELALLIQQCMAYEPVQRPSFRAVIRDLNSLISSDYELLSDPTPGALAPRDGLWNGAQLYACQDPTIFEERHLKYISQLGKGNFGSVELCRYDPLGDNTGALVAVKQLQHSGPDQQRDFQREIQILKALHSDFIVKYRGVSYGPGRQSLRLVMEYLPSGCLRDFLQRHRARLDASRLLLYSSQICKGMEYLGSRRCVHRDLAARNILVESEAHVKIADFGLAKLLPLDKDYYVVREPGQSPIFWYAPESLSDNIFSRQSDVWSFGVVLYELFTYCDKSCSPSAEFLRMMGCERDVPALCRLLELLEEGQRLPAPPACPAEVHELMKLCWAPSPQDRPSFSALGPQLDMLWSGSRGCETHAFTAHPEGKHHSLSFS

[5] = target: Cyclin-dependent kinase 5 (Homo sapiens, UniProt Q00535); test: Inhibition of human CDK5
[6] = target: T3, Serine/threonine-protein kinase 17A (Homo sapiens, UniProt Q9UEE5); test: Inhibition of human DRAK1
T3 sequence (Q9UEE5 whole entry): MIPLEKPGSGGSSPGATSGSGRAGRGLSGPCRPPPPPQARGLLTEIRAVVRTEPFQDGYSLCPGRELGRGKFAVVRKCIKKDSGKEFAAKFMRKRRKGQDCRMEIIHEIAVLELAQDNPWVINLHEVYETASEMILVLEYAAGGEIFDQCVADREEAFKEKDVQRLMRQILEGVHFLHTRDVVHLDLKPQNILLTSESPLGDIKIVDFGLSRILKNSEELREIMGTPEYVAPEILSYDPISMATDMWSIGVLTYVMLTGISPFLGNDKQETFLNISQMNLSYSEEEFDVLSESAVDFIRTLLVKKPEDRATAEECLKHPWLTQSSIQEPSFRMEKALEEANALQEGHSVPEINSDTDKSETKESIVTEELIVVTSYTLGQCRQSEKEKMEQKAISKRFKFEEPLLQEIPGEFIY

[7] = target: Death-associated protein kinase 1 (Homo sapiens, UniProt P53355); test: Inhibition of human DAPK1
[8] = target: Tyrosine-protein kinase SYK (Homo sapiens, UniProt P43405); test: Inhibition of human SYK
[9] = target: T4, Tyrosine-protein kinase ITK/TSK (Homo sapiens, UniProt Q08881); test: Inhibition of human ITK
T4 sequence (Q08881 whole entry): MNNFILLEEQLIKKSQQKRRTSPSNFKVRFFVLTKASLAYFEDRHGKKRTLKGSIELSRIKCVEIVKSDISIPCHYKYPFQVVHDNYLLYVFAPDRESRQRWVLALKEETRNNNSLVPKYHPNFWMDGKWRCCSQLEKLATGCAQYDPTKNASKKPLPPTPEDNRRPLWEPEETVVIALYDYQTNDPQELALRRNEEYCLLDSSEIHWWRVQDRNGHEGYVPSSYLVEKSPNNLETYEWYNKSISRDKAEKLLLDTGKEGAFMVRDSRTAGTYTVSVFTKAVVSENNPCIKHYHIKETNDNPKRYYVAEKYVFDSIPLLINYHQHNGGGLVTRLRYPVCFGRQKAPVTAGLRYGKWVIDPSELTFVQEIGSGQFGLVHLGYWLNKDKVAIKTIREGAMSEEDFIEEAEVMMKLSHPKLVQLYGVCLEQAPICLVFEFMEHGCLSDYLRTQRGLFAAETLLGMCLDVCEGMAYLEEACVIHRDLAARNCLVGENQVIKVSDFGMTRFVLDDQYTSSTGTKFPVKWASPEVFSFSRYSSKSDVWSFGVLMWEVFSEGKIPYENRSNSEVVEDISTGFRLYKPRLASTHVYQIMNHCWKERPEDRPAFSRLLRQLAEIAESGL

[10] = target: Tyrosine-protein kinase JAK2 (Homo sapiens, UniProt O60674); test: Inhibition of human JAK2
[11] = target: Glycogen synthase kinase-3 beta (Homo sapiens, UniProt P49841); test: Inhibition of human GSK3beta
[12] = target: Cyclin-dependent kinase 6 (Homo sapiens, UniProt Q00534); test: Inhibition of human CDK6
[13] = target: Cyclin-dependent kinase 9 (Homo sapiens, UniProt P50750); test: Inhibition of human CDK9
[14] = target: Tyrosine-protein kinase Blk (Homo sapiens, UniProt P51451); test: Inhibition of human BLK
[15] = target: Tyrosine-protein kinase BTK (Homo sapiens, UniProt Q06187); test: Inhibition of human BTK
Angiopoietin-1 receptor = Angiopoietin-1 receptor (Homo sapiens, UniProt Q02763); test: Inhibition of human TEK
Aurora kinase A = target: T5, Aurora kinase A (Homo sapiens, UniProt O14965); test: Inhibition of human AURORA-A
T5 sequence (O14965 whole entry): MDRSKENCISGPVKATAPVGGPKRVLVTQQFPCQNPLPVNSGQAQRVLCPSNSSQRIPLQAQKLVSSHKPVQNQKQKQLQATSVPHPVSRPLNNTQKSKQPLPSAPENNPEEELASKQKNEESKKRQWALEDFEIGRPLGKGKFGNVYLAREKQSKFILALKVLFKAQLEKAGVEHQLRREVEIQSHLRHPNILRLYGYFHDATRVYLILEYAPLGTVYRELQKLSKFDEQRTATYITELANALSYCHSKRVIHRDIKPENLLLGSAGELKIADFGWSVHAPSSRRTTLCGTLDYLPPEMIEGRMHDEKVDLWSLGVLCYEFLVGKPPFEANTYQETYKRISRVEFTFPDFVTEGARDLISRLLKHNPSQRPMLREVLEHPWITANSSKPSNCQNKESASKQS

[16] = target: Cyclin-dependent kinase 4 (Homo sapiens, UniProt P11802); test: Inhibition of human CDK4
Chain of Cyclin-dependent kinase 4 (P11802 whole entry): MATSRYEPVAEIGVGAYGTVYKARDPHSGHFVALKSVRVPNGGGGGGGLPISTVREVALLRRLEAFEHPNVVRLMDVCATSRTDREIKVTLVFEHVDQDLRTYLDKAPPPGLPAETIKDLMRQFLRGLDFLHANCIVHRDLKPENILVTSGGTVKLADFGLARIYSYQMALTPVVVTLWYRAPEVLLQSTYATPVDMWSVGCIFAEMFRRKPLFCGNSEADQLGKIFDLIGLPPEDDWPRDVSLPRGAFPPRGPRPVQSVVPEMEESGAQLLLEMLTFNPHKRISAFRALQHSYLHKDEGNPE

Chain of Death-associated protein kinase 2 (Q9UIK4 whole entry): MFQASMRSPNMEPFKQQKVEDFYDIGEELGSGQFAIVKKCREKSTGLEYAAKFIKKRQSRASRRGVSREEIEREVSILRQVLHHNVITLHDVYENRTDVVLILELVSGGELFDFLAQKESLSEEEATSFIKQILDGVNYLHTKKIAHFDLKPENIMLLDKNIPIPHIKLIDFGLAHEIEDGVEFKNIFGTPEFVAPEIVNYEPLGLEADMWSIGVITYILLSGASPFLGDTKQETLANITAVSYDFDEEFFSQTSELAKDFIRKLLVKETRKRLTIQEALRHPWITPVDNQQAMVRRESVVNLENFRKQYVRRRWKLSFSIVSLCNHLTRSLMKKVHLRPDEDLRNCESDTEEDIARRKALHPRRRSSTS
Chain of Death-associated protein kinase 3 (O43293 whole entry): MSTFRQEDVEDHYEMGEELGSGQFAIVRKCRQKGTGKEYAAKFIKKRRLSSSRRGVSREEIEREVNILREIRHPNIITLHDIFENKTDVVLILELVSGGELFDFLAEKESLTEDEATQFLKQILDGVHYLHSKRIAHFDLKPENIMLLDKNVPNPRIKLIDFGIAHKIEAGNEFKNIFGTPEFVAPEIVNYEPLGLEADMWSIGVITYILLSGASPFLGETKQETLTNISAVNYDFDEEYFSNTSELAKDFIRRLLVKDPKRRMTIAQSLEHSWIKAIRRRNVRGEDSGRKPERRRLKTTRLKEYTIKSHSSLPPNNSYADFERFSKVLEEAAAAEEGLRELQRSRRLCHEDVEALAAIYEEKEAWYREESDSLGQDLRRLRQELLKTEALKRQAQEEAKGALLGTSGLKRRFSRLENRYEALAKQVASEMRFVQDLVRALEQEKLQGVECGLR
Chain of Angiopoietin-1 receptor (Q02763 whole entry): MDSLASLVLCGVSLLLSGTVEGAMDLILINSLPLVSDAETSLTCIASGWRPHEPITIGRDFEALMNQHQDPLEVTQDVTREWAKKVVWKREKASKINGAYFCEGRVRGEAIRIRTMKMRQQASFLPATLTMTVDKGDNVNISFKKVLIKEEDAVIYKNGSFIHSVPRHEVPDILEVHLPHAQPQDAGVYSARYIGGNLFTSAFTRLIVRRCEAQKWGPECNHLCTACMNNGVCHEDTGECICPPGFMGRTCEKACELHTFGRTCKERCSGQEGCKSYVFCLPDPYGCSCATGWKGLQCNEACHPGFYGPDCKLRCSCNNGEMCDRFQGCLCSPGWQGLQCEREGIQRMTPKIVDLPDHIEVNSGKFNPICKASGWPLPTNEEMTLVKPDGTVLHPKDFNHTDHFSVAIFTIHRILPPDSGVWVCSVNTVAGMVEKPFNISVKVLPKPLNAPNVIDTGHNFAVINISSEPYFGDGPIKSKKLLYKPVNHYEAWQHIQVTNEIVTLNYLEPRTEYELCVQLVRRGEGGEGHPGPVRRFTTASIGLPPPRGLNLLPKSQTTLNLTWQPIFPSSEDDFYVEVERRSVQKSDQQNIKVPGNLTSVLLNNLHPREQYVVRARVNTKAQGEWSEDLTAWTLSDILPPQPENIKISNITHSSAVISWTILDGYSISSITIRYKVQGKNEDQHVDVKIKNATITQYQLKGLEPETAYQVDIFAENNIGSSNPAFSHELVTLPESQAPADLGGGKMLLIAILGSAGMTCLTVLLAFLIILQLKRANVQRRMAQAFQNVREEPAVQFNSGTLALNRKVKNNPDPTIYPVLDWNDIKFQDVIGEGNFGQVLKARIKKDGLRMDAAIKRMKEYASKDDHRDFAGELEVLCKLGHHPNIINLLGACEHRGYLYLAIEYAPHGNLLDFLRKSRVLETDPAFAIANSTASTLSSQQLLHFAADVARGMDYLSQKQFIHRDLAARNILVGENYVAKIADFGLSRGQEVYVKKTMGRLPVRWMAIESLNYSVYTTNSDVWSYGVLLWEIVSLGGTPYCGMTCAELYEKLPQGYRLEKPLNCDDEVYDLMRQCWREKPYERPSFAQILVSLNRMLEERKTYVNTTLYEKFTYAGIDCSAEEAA
Chain of Cyclin-dependent kinase 5 (Q00535 whole entry): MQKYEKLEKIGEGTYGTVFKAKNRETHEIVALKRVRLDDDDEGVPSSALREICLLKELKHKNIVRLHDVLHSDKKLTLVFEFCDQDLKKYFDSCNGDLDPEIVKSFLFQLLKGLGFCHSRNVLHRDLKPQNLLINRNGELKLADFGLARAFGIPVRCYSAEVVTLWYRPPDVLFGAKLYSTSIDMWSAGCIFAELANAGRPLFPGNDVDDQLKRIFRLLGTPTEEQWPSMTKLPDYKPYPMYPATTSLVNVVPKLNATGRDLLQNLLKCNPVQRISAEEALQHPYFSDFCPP
Chain of Tyrosine-protein kinase BTK (Q06187 whole entry): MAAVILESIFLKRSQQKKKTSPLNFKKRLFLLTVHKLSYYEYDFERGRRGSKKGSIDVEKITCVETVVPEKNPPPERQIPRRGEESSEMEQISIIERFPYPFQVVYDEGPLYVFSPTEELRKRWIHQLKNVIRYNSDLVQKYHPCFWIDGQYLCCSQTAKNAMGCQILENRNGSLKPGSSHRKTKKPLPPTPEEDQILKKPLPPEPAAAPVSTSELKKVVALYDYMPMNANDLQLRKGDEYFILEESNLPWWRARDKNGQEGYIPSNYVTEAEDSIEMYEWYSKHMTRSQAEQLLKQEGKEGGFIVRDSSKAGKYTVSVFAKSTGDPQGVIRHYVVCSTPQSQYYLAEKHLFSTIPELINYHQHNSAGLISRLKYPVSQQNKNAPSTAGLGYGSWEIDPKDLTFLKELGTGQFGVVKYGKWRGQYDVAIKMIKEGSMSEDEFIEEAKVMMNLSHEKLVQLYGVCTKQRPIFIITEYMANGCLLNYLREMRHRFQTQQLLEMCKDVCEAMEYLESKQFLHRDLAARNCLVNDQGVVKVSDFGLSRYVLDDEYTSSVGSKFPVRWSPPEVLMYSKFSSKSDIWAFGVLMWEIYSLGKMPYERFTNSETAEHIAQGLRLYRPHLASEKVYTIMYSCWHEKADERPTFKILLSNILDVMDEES
Chain of Glycogen synthase kinase-3 beta (P49841 whole entry): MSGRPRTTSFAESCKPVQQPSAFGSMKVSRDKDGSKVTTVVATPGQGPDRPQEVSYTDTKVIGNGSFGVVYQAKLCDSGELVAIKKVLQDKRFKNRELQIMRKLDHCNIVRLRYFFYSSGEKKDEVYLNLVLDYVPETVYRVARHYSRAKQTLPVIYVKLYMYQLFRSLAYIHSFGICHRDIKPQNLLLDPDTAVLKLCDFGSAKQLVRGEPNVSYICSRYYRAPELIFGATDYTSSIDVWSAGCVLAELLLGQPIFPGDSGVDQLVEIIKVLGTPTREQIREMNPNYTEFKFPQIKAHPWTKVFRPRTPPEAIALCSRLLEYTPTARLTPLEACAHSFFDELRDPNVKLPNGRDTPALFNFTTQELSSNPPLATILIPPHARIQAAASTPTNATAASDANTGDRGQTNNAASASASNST
Chain of Tyrosine-protein kinase Blk (P51451 whole entry): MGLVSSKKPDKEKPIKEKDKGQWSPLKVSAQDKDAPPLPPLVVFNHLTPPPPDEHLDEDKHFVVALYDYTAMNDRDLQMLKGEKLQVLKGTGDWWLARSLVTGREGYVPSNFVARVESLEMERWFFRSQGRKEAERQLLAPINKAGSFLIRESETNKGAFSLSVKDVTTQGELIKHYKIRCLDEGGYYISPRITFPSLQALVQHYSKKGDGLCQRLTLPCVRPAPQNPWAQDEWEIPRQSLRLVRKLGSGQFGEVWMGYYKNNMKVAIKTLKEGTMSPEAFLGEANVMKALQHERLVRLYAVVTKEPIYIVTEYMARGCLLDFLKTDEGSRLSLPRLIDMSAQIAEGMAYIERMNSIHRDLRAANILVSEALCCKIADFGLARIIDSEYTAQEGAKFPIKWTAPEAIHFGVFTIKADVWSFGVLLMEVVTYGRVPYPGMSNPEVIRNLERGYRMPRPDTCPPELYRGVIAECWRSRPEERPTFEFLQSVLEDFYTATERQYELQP
Chain of Cyclin-dependent kinase 6 (Q00534 whole entry): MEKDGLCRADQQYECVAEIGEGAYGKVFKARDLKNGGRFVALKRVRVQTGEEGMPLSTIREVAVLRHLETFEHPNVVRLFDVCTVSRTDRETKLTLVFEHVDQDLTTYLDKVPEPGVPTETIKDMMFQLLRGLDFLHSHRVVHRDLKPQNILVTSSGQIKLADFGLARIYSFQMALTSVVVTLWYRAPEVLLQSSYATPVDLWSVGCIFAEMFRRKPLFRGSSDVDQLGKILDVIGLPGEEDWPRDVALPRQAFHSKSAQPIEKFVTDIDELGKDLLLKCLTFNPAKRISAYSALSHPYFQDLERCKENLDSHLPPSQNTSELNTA
Chain of Cyclin-dependent kinase 9 (P50750 whole entry): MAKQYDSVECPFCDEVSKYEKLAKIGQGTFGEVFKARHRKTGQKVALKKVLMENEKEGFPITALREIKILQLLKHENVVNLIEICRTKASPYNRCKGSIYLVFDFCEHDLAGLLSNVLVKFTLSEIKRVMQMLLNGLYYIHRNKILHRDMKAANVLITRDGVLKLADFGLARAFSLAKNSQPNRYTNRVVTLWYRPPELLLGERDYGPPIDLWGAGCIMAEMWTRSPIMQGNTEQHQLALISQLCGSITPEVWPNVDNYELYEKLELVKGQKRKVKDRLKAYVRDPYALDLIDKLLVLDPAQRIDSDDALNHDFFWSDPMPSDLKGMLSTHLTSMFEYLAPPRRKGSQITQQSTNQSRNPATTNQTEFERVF

SMILES | IC50 [1] [µM] | also measured
CCOc1cc(/C=C2\Oc3ccc(Br)cc3C2=O)ccc1O | 28.1 | 
COc1ccc(/C=C2\Oc3ccccc3C2=O)cc1O | 12.1 | 
O=C1/C(=C/c2ccc(F)cc2)Oc2ccccc21 | 40.5 | 
O=C1/C(=C/c2cccnc2)Oc2ccccc21 | 39.4 | 
CCOc1cc(/C=C2\Oc3cc(F)ccc3C2=O)ccc1O | 60.4 | 
CCOc1cc(/C=C2\Oc3ccc(Cl)cc3C2=O)ccc1O | 13.7 | 
O=C1/C(=C/c2ccco2)Oc2ccccc21 | 64 | 
CCOc1cc(/C=C2\Oc3ccc(I)cc3C2=O)ccc1O | 42.5 | 
O=C1/C(=C/c2ccc(O)c(O)c2)Cc2ccccc21 | 13.3 | 
CC(C)Oc1cc(/C=C2\Oc3ccccc3C2=O)ccc1O | 17.4 | 
O=C1/C(=C/c2ccc(O)cc2)Oc2ccccc21 | 53 | 
CCOc1cc(/C=C2\Oc3cc(Cl)ccc3C2=O)ccc1O | 40.5 | 
O=C1/C(=C/c2ccccc2)Oc2ccccc21 [(Z)-AURONE] | 24.6 | 
O=C(c1ccc(O)c(O)c1)c1cc2ccccc2o1 | 22.9 | 
O=C1c2ccccc2OC1Cc1ccc(O)c(O)c1 (stereo not given) | 27.8 | 
COc1ccc(/C=C2\Oc3ccccc3C2=O)cc1OC [3',4'-DIMETHOXY-AURONE] | 21.4 | 
CCCCOc1cc(/C=C2\Oc3ccccc3C2=O)ccc1O | 29.1 | 

Now those with a lower IC50 [1], led by results:

IC50 [1] [µM] | SMILES | also measured
7.26 | CCOc1cc(/C=C2\Oc3cccc(OC)c3C2=O)ccc1O | 
2.44 | CCOc1cc(/C=C2\Oc3cc(OC)ccc3C2=O)ccc1O | 
3.24 | CCOc1cc(/C=C2\Oc3ccccc3C2=O)ccc1O | 
3.66 | CCCCOc1ccc2c(c1)C(=O)/C(=C/c1ccc(O)c(OCC)c1)O2 | 
0.69 | CCOc1cc(/C=C2\Oc3ccc(OC(C)=O)cc3C2=O)ccc1O | 
1.31 | COc1ccc(-c2cnc3scc(NC(=O)C4CCCCC4)c3c2)cc1OC | IC50 [2]: 39.8 µM; IC50 [3]: 55 µM
11.1 | O=C1/C(=C/c2ccc(CO)cc2)Oc2ccccc21 | 
1.02 | O=C1/C(=C/c2ccc(O)c(O)c2)Oc2cc(O)ccc21 [SULFURETIN] | IC50 [4]: 4.26 µM; IC50 [5]: 1.5 µM; IC50 [2]: 2.33 µM; IC50 [6]: 5.85 µM; IC50 [3]: 3.07 µM; IC50 [7]: 13.2 µM; IC50 [8]: 4.63 µM; IC50 [9]: 2.02 µM; IC50 [10]: 9.32 µM; IC50 [11]: 1.95 µM; IC50 [12]: 2.44 µM; IC50 [13]: 2.16 µM; IC50 [14]: 2.88 µM; IC50 [15]: 6.02 µM; IC50 (Angiopoietin-1 receptor): 0.95 µM; IC50 (Aurora kinase A): 0.85 µM; IC50 [16]: 2.82 µM
3.08 to 3.15 | O=C1/C(=C/c2ccc(O)c(O)c2)Oc2ccccc21 | 
6.65 | COc1cc(/C=C2\Oc3ccccc3C2=O)cc(OC)c1O | 
0.25 | COc1ccc2c(c1)C(=O)/C(=C/c1ccc(O)c(O)c1)O2 | IC50 [5]: 8.84 µM; IC50 [2]: 12.1 µM; IC50 [6]: 5.81 µM; IC50 [3]: 6.34 µM; IC50 [9]: 2.19 µM; IC50 [11]: 5.3 µM; IC50 [14]: 3.05 µM; IC50 [15]: 5.03 µM; IC50 (Angiopoietin-1 receptor): 0.51 µM; IC50 (Aurora kinase A): 1.05 µM
0.41 | CCOc1ccc2c(c1)C(=O)/C(=C/c1ccc(O)c(OCC)c1)O2 | 
5.37 | CCCOc1cc(/C=C2\Oc3ccccc3C2=O)ccc1O | 
0.96 | CCOc1cc(/C=C2\Oc3ccc(C)cc3C2=O)ccc1O | 
3.11 | COc1cc(/C=C2\Oc3ccccc3C2=O)ccc1O | 
0.99 | O=C1/C(=C/c2ccc(O)c(O)c2)Oc2ccc(O)cc21 | 
7.16 | CCOc1cc(/C=C2\Oc3ccc(N)cc3C2=O)ccc1O | 
1.29 | CCOc1cc(/C=C2\Oc3c(OC)cccc3C2=O)ccc1O | 
1.05 | CCOc1cc(/C=C2\Oc3ccc(F)cc3C2=O)ccc1O | 
